Columns and labels:
Format in all cases: cell-based
B16-F1 melanocytes = experiment: B16 Pigmentation Assay
Text: B16 Pigmentation Assay: Melanogenesis is the process by which melanocytes produce melanin, a naturally produced pigment that imparts color to skin, hair, and eyes. Inhibiting melanogenesis is beneficial to prevent skin darkening and lighten dark spots associated with aging. This bioassay utilizes B16-F1 melanocytes (ATCC), an immortalized mouse melanoma cell line, to analyze the effect of compounds on melanogenesis. The endpoint of this assay is a spectrophotometric measurement of melanin production and cellular viability. B16-F1 melanocytes, can be cultivated in standard DMEM growth medium with 10% fetal bovine serum (Mediatech) at 37° C. in 10% CO2 and then treated with any one of the active ingredients, combination of ingredients, or compositions having said combinations disclosed in the specification for 6 days. Following incubation, melanin secretion was measured by absorbance at 405 nm and cellular viability was quantified.

[1] = test system: IL-1α production by Human Epidermal Keratinocytes; experiment: IL-1α Assay (ELISA, cell culture supernates)
Procedure: IL-1α Assay: A quantitative sandwich enzyme immunoassay technique(ELISA) was used to measure IL-1α in cell culture supernates. A monoclonal antibody that is specific for IL-1α was pre-coated onto a microplate. Standards and treatment samples are then pipetted into the wells and any IL-1α present is bound by the immobilized antibody. After washing away any unbound substances, an enzyme-linked polyclonal antibody specific for IL-1α is added to the wells. Following a wash to remove any unbound antibody-enzyme reagent, a substrate solution is added to the wells and color develops in proportion to the amount of IL-1α bound which was secreted in response to the treatment.

[2] = test system: TNF-α production by human epidermal keratinocytes; experiment: Tumor Necrosis Factor Alpha (TNF-α) Assay (ELISA)
Text: Tumor Necrosis Factor Alpha (TNF-α) Assay: The prototype ligand of the TNF superfamily, TNF-α, is a pleiotropic cytokine that plays a central role in inflammation. Increase in its expression is associated with an up regulation in pro-inflammatory activity. This bioassay can be used to analyze the effect of any one of the active ingredients, combination of ingredients, or compositions having said combinations disclosed in the specification on the production of TNF-α by human epidermal keratinocytes. The endpoint of this assay can be a spectrophotometric measurement that reflects the presence of TNF-α and cellular viability. The assay employs the quantitative sandwich enzyme immunoassay technique whereby a monoclonal antibody specific for TNF-α has been pre-coated onto a microplate. […] Following a wash to remove any unbound antibody-enzyme reagent, a substrate solution can be added to the wells and color develops in proportion to the amount of TNF-α bound in the initial step using a microplate reader for detection at 450 nm. The color development can be stopped and the intensity of the color can be measured. […] Following incubation, cell culture medium can be collected and the amount of TNF-α secretion quantified using a sandwich enzyme linked immuno-sorbant assay (ELISA) from R&D Systems (#DTA00C).

Compound | Inhibits Melanogenesis with Mouse Melanocytes (B16-F1 Assay) (B16-F1 melanocytes) | Inhibit IL-1α Production by Human Epidermal Keratinocytes (% inhibition) [1] [%] | Inhibit TNF-α Production by Human Epidermal Keratinocytes [2] [%]
NC(=O)c1cccnc1 [Niacinamide] | (−28%) | – | –
Acetyl dipeptide-1 Cetyl Ester | – | 97 | 88

Reference: patent publication US11253460B2, “Cosmetic compositions” (Mary Kay Inc., priority 2013, dated 2022)
